Structures are written as SMILES.

The test system of the first test is arrhythmias.
Test: not given
The settings on record: literature: Circulation 68 (1983) 88-94; Am. Heart J. 109 (1985) 949-958; J. Clin. Pharmacol. 27 (1987) 708; cited from earlier work.
For `CC(C)NCC(O)c1ccc(NS(C)(=O)=O)cc1` (single isomer, unassigned) [D-Sotalol], the “acting against arrhythmias which are otherwise resistant to therapy” value is recorded as “acting against arrhythmias which are otherwise resistant to therapy, especially reentry arrhythmias”.
Regarding `CCCCc1oc2ccccc2c1C(=O)c1cc(I)c(OCCN(CC)CC)c(I)c1` [amiodarone], the “acting against arrhythmias which are otherwise resistant to therapy” value is recorded as “acting against arrhythmias which are otherwise resistant to therapy, especially reentry arrhythmias”.

A further test has as its system QT interval. Briefly: Class III antiarrhythmic action in guinea-pigs after intravenous administration (increase in the QT interval, ECG). The test is classed as in vivo, Pirbright white guinea-pigs. The settings on record: Cavia porcellus, anesthetized (urethane) guinea-pigs, ED 20% from linear relation between log dose and relative increase in the QT interval. Here is the method:
The experimental animals are male and female Pirbright white guinea-pigs weighing from 300 to 500 g. They are anesthetized with 1.5 g/kg urethane i.p. The substances are administered intravenously. The ECG conduction times and the heart rate are measured from a recording from extremity lead II. The measured variables are the QT and PQ intervals and the heart rate. 4 to 6 animals are used per dose. The criterion of a class III action is an increase in the QT interval compared with the values before administration of the substance. An increase in PQ and a large decrease in the heart rate serve as exclusion criteria. The ED 20% is calculated from the linear relation between log dose (mg/kg) of the substance and the relative increase in the QT interval (in %).
`Cc1cc(C(=O)/C=C/c2ccccc2C(F)(F)F)cc(C)c1OCCN1CCCC1.O=C(O)/C=C/C(=O)O` [Example 5, 3',5'-Dimethyl-4'-[2-(1-pyrrolidinyl)ethoxy]-2-trifluoromethylchalcone fumarate]: the ED (20%) is 1 mg/kg.
`CC(C)NCC(O)c1ccc(NS(C)(=O)=O)cc1` (single isomer, unassigned) [D-Sotalol] yielded an ED (20%) of 3.6 mg/kg.
`Cc1ccsc1/C=C/C(=O)c1cc(C)c(OCCN2CCCC2)c(C)c1.O=C(O)/C=C/C(=O)O` [Example 4, 3,5-Dimethyl-4-[2-(1-pyrrolidinyl)ethoxy]phenyl E-2-(3-methyl-2-thienyl)ethenyl ketone fumarate] came in with an ED (20%) of 1.2 mg/kg.
In turn, `Cc1cc(C(=O)/C=C/c2cccn2C)cc(C)c1OCCN1CCCC1.O=C(O)/C=C/C(=O)O` [Example 2, 3,5-Dimethyl-4-[2-(1-pyrrolidinyl)ethoxy]phenyl E-2-(1-methyl-2-pyrrolyl)ethenyl ketone fumarate] displayed an ED (20%) of 1.1 mg/kg.
